# Experimental data: ChEMBL document CHEMBL3817754, “Synthesis and evaluation of donepezilferulic acid hybrids as multi-target-directed ligands against Alzheimer's disease” (Medchemcomm, 2016)
# The source made the active and inactive calls. The rule behind the calls is not given here.
# Columns and labels:
# Acetylcholinesterase [1] = target: Acetylcholinesterase (Electrophorus electricus, UniProt O42275); assay: Inhibition of electric eel acetylcholinesterase preincubated for 5 mins followed by addition of acetylthiocholine iodide as substrate measured after 60 to 120 mins by Ellmans method
# Acetylcholinesterase (Electrophorus electricus, UniProt O42275), sequence (O42275 whole entry): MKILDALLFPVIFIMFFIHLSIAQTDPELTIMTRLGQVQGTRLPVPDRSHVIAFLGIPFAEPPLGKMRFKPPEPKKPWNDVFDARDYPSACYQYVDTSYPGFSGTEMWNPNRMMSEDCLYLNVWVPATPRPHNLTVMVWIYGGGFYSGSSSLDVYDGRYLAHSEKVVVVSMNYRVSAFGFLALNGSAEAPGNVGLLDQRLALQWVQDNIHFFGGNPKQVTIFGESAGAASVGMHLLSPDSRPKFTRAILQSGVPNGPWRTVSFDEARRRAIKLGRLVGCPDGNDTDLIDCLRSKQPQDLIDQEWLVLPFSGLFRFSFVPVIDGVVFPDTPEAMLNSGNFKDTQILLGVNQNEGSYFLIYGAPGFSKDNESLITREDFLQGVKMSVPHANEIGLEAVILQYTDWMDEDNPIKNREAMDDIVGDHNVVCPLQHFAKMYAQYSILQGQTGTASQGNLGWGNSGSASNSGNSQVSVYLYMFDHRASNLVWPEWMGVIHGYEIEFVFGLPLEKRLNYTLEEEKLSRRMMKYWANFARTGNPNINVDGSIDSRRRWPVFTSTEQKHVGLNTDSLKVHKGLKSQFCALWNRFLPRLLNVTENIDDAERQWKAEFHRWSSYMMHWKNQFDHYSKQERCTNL
# Cholinesterase [2] = target: Cholinesterase (Equus caballus, UniProt P81908); assay: Inhibition of equine serum butyrylcholinesterase preincubated for 5 mins followed by addition of S-butyrylthiocholine iodide as substrate measured after 60 to 120 mins by Ellmans method
# Cholinesterase (Equus caballus, UniProt P81908), sequence (P81908 whole entry): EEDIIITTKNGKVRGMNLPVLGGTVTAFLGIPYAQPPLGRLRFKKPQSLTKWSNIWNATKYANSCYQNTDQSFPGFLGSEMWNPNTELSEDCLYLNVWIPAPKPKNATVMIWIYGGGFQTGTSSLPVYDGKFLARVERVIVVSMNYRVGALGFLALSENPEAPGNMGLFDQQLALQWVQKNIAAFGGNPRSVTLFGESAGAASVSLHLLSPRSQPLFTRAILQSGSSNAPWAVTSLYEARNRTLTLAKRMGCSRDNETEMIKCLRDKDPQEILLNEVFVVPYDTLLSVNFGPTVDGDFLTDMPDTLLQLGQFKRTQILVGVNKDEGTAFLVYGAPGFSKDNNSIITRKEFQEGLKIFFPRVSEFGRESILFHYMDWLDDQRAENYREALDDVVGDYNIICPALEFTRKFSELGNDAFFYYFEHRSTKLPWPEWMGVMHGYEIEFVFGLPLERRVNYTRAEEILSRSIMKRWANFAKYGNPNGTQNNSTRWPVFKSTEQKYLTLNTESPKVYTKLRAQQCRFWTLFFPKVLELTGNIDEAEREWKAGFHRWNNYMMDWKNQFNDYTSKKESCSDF
# [3] = Selectivity index, ratio of IC50 for equine serum butyrylcholinesterase to IC50 for electric eel acetylcholinesterase
# Acetylcholinesterase [4] = target: Acetylcholinesterase (Homo sapiens, UniProt P22303); assay: Inhibition of human erythrocytes acetylcholinesterase preincubated for 5 mins followed by addition of acetylthiocholine iodide as substrate measured after 60 to 120 mins by Ellmans method
# Acetylcholinesterase (Homo sapiens, UniProt P22303), sequence (P22303 whole entry): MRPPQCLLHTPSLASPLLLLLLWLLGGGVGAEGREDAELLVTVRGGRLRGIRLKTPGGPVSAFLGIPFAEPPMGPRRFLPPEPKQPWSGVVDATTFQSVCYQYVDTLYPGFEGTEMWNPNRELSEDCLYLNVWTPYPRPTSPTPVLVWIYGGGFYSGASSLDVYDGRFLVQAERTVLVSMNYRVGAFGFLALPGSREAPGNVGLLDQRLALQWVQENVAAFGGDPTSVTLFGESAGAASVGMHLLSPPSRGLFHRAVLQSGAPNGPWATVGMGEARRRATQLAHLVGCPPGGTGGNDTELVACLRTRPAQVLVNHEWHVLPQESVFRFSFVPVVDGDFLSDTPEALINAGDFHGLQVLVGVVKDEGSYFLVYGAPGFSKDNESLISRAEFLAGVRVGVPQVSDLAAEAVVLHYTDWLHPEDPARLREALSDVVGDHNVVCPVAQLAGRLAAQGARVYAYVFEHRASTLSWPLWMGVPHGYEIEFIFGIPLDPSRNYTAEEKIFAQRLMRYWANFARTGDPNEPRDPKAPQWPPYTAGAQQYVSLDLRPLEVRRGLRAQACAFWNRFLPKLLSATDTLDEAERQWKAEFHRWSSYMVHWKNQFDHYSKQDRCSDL
# Cholinesterase [5] = target: Cholinesterase (Homo sapiens, UniProt P06276); assay: Inhibition of human serum butyrylcholinesterase preincubated for 5 mins followed by addition of S-butyrylthiocholine iodide as substrate measured after 60 to 120 mins by Ellmans method
# Cholinesterase (Homo sapiens, UniProt P06276), sequence (P06276 whole entry): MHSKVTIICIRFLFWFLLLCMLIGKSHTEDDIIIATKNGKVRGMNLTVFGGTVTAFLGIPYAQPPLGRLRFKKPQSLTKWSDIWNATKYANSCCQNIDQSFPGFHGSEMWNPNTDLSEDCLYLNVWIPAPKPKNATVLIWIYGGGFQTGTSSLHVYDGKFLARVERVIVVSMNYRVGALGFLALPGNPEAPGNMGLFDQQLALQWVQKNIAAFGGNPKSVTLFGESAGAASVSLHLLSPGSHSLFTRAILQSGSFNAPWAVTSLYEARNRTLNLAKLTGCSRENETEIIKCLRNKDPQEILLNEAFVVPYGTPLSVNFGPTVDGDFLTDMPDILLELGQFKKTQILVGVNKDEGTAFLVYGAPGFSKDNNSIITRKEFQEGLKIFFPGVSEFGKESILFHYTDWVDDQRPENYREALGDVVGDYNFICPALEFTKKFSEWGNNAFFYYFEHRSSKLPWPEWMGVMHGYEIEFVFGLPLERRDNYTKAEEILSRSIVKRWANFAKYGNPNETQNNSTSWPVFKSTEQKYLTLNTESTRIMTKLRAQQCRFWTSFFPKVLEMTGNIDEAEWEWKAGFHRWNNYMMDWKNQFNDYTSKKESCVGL
# Homo sapiens = organism: Homo sapiens; assay: Selectivity index, ratio of IC50 for human serum butyrylcholinesterase to IC50 for human erythrocytes acetylcholinesterase
# [6] = Cytotoxicity against […] PC12 cells assessed as cell viability at 20 uM after 24 hrs by MTT assay; assay type: cell-based; details: rat, pc-12, 24 h
# [7] = Antioxidant activity assessed as DPPH radical scavenging activity at 1000 uM incubated in dark for 30 mins by spectrophotometry; assay type: physicochemical; details: 0.5 h
# [8] = DPPH radical solution, 30 min
# Description: Antioxidant activity assessed as DPPH radical scavenging activity incubated in dark for 30 mins by spectrophotometry
# PC-12 = assay: Neuroprotective activity against H2O2 induced damage in […] PC12 cells assessed as cell viability at 1 to 10 uM preincubated for 4 hrs followed by H2O2 challenge for 20 hrs by MTT assay; assay type: functional, cell-based; details: Rattus norvegicus
# in vitro = details: PAMPA
# [9] = target: Cholinesterase (Equus caballus) (UniProt P81908); assay: Inhibition of equine serum butyrylcholinesterase at 1000 uM preincubated for 5 mins followed by addition of S-butyrylthiocholine iodide as substrate measured after 60 to 120 mins by Ellmans method
# Cholinesterase (Equus caballus), sequence (P81908 whole entry): as the sequence (P81908 whole entry) above
Structure (SMILES),IC50 (Acetylcholinesterase [1]) [nM],IC50 (Cholinesterase [2]) [nM],Ratio IC50 [3],IC50 (Acetylcholinesterase [4]) [nM],IC50 (Cholinesterase [5]) [nM],Ratio IC50 (Homo sapiens),Activity [6],inhibition (INH) [7],IC50 [8] [nM],Activity (PC-12),"Papp at 16 h, 5 mg/mL (in vitro) [×10⁻⁶ cm/s]",inhibition [9]
O=C(/C=C/c1ccc(Cl)cc1)NCCC1CCN(Cc2ccccc2)CC1,521,2770,5.32,362,2070,5.72,Toxic,Not Active,,,,
O=C(/C=C/c1ccc([N+](=O)[O-])cc1)NCCC1CCN(Cc2ccccc2)CC1,444,3100,6.98,337,4230,12.5,Non-toxic,Not Active,,,,
COc1cc(/C=C/C(=O)CC(=O)NCCC2CCN(Cc3ccccc3)CC2)ccc1O,2600,1080,0.415,,,,Non-toxic,,76800,,,
COc1cc(CCC(=O)NCCC2CCN(Cc3ccccc3)CC2)ccc1O,7480,4400,0.588,5320,286,0.054,Non-toxic,,48300,Active,,
O=C(/C=C/c1ccccc1)NCCC1CCN(Cc2ccccc2)CC1,543,390,0.718,411,1410,3.43,Non-toxic,Not Active,,,,
O=C(/C=C/c1ccc(O)c(O)c1)NC1CCN(Cc2ccccc2)CC1,62100,15000,0.241,,,,Non-toxic,,10600,Active,,
COc1cc(/C=C/C(=O)NCCC2CCN(Cc3ccccc3)CC2)ccc1O,651,1220,1.87,729,1120,1.54,Non-toxic,,34100,Active,5.16,
COc1cc(/C=C/C(=O)NC2CCN(Cc3ccccc3)CC2)cc(OC)c1O,28200,7340,0.26,,,,Non-toxic,,22300,,,
COc1cc(/C=C/C(=O)CC(=O)NC2CCN(Cc3ccccc3)CC2)ccc1O,26300,53200,1.99,,,,Non-toxic,,88700,,,
COc1ccc(/C=C/C(=O)NCCC2CCN(Cc3ccccc3)CC2)cc1O,1060,2470,2.33,1660,3240,1.95,Non-toxic,,764000,,,
O=C(/C=C/c1ccccc1O)NCCC1CCN(Cc2ccccc2)CC1,2160,1060,0.491,2680,988,0.37,Non-toxic,,977000,,,
O=C(/C=C/c1ccc(O)cc1)NC1CCN(Cc2ccccc2)CC1,70800,146000,2.06,,,,Non-toxic,,980000,,,
COc1cc(/C=C/C(=O)NC2CCN(Cc3ccccc3)CC2)ccc1OC(C)=O,22000,17300,0.786,,,,Non-toxic,Not Active,,,,
COc1cccc(/C=C/C(=O)NCCC2CCN(Cc3ccccc3)CC2)c1,383,244,0.642,690,1440,2.09,Non-toxic,Not Active,,,,
NCCC1CCN(Cc2ccccc2)CC1,159000,,,,,,,,,,,inactive
O=C(/C=C/c1ccc(O)cc1)NCCC1CCN(Cc2ccccc2)CC1,874,1240,1.42,2200,784,0.36,Non-toxic,,936000,,,
Cc1c(C)c2c(c(C)c1O)CCC(C)(C(=O)O)O2 (configuration not stated),,,,,,,,,,Active,,
COc1cc(CCC(=O)NC2CCN(Cc3ccccc3)CC2)ccc1O,33600,31900,0.949,,,,Non-toxic,,55100,,,
O=C(/C=C/c1ccc(Cl)cc1)NC1CCN(Cc2ccccc2)CC1,67700,51400,0.759,,,,Non-toxic,Not Active,,,,
COc1cc(/C=C/C(=O)NCCC2CCN(Cc3ccccc3)CC2)cc(OC)c1OC,130,416,3.2,234,669,2.86,Non-toxic,Not Active,,,7.43,
COc1cc(/C=C/C(=O)NC2CCN(Cc3ccccc3)CC2)ccc1O,29300,49200,1.68,,,,Non-toxic,,32500,,,
COc1ccc(/C=C/C(=O)NCCC2CCN(Cc3ccccc3)CC2)cc1OC,285,1550,5.43,526,2540,4.83,Non-toxic,Not Active,,,,
COc1cc(/C=C/C(=O)NC2CCN(Cc3ccccc3)CC2)cc(OC)c1OC,31600,1250,0.038,,,,Non-toxic,Not Active,,,,
O=C(/C=C/c1ccc(O)cc1)CC(=O)NC1CCN(Cc2ccccc2)CC1,58300,3100,0.053,,,,Non-toxic,,890000,,,
O=C(/C=C/c1ccc([N+](=O)[O-])cc1)NC1CCN(Cc2ccccc2)CC1,7120,9010,1.26,,,,Non-toxic,Not Active,,,,
O=C(/C=C/c1ccc(F)cc1)NC1CCN(Cc2ccccc2)CC1,59300,90800,1.53,,,,Non-toxic,Not Active,,,,
COc1cc(/C=C/C(=O)NCCC2CCN(Cc3ccccc3)CC2)ccc1OC(C)=O,290,670,2.31,339,245,0.72,Non-toxic,Not Active,,,,
O=C(/C=C/c1ccc(F)cc1)NCCC1CCN(Cc2ccccc2)CC1,815,1980,2.43,3300,7510,2.28,Non-toxic,Not Active,,,,
